The source of these data is ChEMBL document CHEMBL3227930, “Some 11-substituted tetrahydrocannabinols. Synthesis and comparison with the potent cannabinoid metabolites 11-hydroxytetrahydrocannabinols” (1979).

Activity calls are given as the source filed them. The calls are words filed in the database; no cut-off is given here.

The subject of assay [1] is Canis familiaris. In words: Induction of overt behavior in dog at 4 mg/kg, iv. Format: functional, organism-based. Also noted: dose 4 mg/kg. The settings on record: Canis lupus familiaris.
For assay [2], the system named is Canis familiaris. As to the kind of experiment: Induction of overt behavior in dog at 2 mg/kg, iv. Type of assay: functional, organism-based. Also noted: dose 2 mg/kg. The settings on record: Canis lupus familiaris.
Assay [3] relates to Mus musculus. In words: Analgesic activity in sc dosed mouse by hot-plate method. Type of assay: functional. (Hot-plate and tail-flick tests time the reaction to a heat stimulus.)
In assay [4] the test system is Canis familiaris. In words: Induction of overt behavior in dog at 1 mg/kg, iv. Type of assay: functional, organism-based. The conditions noted are these: Canis lupus familiaris. Also noted: dose 1 mg/kg.
For assay [5], the system named is Canis familiaris. As to the kind of experiment: Induction of overt behavior in dog at 0.40 mg/kg, iv. Format: functional, organism-based. The arrangement: dose 0.4 mg/kg. The conditions noted are these: Canis lupus familiaris.
For assay [6], the system named is Canis familiaris. In words: Induction of overt behavior in dog at 3 mg/kg, iv. Format: functional, organism-based. The arrangement: dose 3 mg/kg. The settings on record: Canis lupus familiaris.
In assay [7] the test system is Canis familiaris. In words: Induction of overt behavior in dog at 0.80 mg/kg, iv. The arrangement: dose 0.8 mg/kg. Format: functional, organism-based. The conditions noted are these: Canis lupus familiaris.
Assay [8] has as its system Mus musculus. In words: Analgesic activity in mouse at 50 mg/kg, sc by hot-plate method. Type of assay: functional, organism-based. The arrangement: dose 50 mg/kg.
Assay [9] concerns Canis familiaris. In words: Induction of overt behavior in dog at 0.20 mg/kg, iv. Format: functional, organism-based. The arrangement: dose 0.2 mg/kg. The settings on record: Canis lupus familiaris.
The subject of assay [10] is Canis familiaris. In words: Induction of overt behavior in dog at 0.10 mg/kg, iv. The arrangement: dose 0.1 mg/kg. Type of assay: functional, organism-based. The conditions noted are these: Canis lupus familiaris.
Assay [11] concerns Canis familiaris. In words: Induction of overt behavior in dog at 0.05 mg/kg, iv. Type of assay: functional, organism-based. The arrangement: dose 0.05 mg/kg. The settings on record: Canis lupus familiaris.
Assay [12] has as its system Canis familiaris. In words: Induction of overt behavior in dog at 0.01 mg/kg, iv. The conditions noted are these: Canis lupus familiaris. The arrangement: dose 0.01 mg/kg. Type of assay: functional, organism-based.
For assay [13], the system named is Mus musculus. As to the kind of experiment: Analgesic activity in mouse at 20 mg/kg, sc by hot-plate method. The arrangement: dose 20 mg/kg. Format: functional, organism-based.
The subject of assay [14] is Canis familiaris. In words: Induction of overt behavior in dog at 0.50 mg/kg, iv. The conditions noted are these: Canis lupus familiaris. Format: functional, organism-based. The arrangement: dose 0.5 mg/kg.

The term ED50 denotes the dose at which the effect has come halfway, by size or by number of responders. Lower therefore signals greater potency. With `CCCCCc1cc(O)c2c(c1)OC(C)(C)[C@@H]1CC=C(COC)C[C@@H]21`, the result in the assay on Canis familiaris [1] and in the assay on Canis familiaris [2] was Active. The same compound gave an ED50 in the assay with Mus musculus [3] of 8.2 mg/kg.
`COc1ccc2c3c1O[C@H]1[C@@H](O)C=C[C@H]4[C@@H](C2)N(C)CC[C@@]341.Cl` showed a median effective dose (ED50) with Mus musculus [3] of 7.5 mg/kg.
Still for that read-out and setting: the result for `CN1CC[C@]23c4c5ccc(O)c4O[C@H]2[C@@H](O)C=C[C@H]3[C@H]1C5.Cl` [MORPHINE HYDROCHLORIDE] reads 1.2 mg/kg.
For the compound `CCCCCc1cc(O)c2c(c1)OC(C)(C)[C@@H]1CC=C(CC)CC21` (mixture of isomers), the outcome in the assay with Canis familiaris [4], with Canis familiaris [6], in the assay on Canis familiaris [7] and in the assay with Canis familiaris [2] was Active. Besides, the outcome in the assay with Canis familiaris [5], in the assay on Mus musculus [8] and in the assay on Canis familiaris [9] was inactive.
`CCCCCc1cc(O)c2c(c1)OC(C)(C)[C@@H]1CCC(CO)=C[C@@H]21`: the result in the assay on Canis familiaris [10], in the assay on Canis familiaris [11] and in the assay with Canis familiaris [12] was Active. For the same compound, in the assay with Mus musculus [3], it took a dose of 1.9 mg/kg to reach the 50% effect level (ED50).
For `CCCCCc1cc(O)c2c(c1)OC(C)(C)[C@@H]1CC=C(C)C[C@@H]21` [DELTA-8-TETRAHYDROCANNABINOL], in the assay with Canis familiaris [5], the result was Active. Besides, the outcome in the assay on Canis familiaris [10] and in the assay with Canis familiaris [9] was inactive. In the assay with Mus musculus [3], this compound came in with a median effective dose (ED50) of 8.8 mg/kg.
With `CCCCCc1cc(O)c2c(c1)OC(C)(C)[C@@H]1CC=C(CN)C[C@@H]21`, the outcome in the assay with Canis familiaris [4], in the assay on Mus musculus [13] and in the assay on Canis familiaris [14] was inactive. In the assay with Canis familiaris [2], the result was Active.
As for `CCCCCc1cc(O)c2c(c1)OC(C)(C)[C@@H]1CC=C(CNC(C)=O)C[C@@H]21`, the outcome with Mus musculus [13] was inactive.
As for `CCCCCc1cc(O)c2c(c1)OC(C)(C)[C@@H]1CC/C(=N/O)C[C@@H]21`, the result in the assay on Mus musculus [13] was inactive.
